Tests used:
[1] = Solubility in H2O; format: physicochemical; conditions: water
[2] = target: T1, human HDAC2 (Homo sapiens, UniProt Q92769); test: Fluorescence HDAC enzyme inhibition assay (Reaction Biology Corporation); format: biochemical
T1 construct: purchased Reaction Biology Corporation HDAC2
Procedure: (§1) The IC50 values for the various inhibitors against the isoenzymes of HDAC were measured by Reaction Biology Corporation (Malvern, Pa., USA) (Buffer, Kalin et al. 2010): For the enzyme inhibition assay, human recombinant protein material was used (human HDAC2 (CAT #: HDAC2), human HDAC6 (CAT #: HDAC6) or human HDAC8 (CAT #: HDAC8)). A 10-point dose response curve was prepared using a 3-fold dilution series (1:3), started at a concentration of 1 μM in DMSO for the synthesized drugs and 10 μM in DMSO for the reference substance Trichostatin A231 (TSA, for HDAC 2, 6 and 8). Reaction time was 90 minutes at 37° C. in a volume of 50 μL in a 96 well plate. Reaction buffer: 50 mM Tris-HCl, pH=8.0, 137 mM NaCl, 2.7 mM KCl, and 1 mM MgCl2 freshly added: 1 mg/ml bovine serum albumin. The fluorescence was measured using a fluoroscope Ascent™ FL fluorometer. The percent enzyme activity was calculated relative to the DMSO control. IC50 values were calculated using GraphPad Prism (GraphPad Prism 4.0 Software, San Diego, USA) based on a sigmoidal dose-response equation.
(§2) HDAC enzyme inhibition assays were conducted by Reaction Biology Corporation (Malvern, Pa., USA) using a ten point dose response curve with half-log serial dilutions, fluorogenic peptides at 50 μM as enzymatic substrates. Substrate for HDAC 2 and 6: fluorogenic peptide from p53 residues 379-382 (RHKK(Ac)AMC). Substrate for HDAC-8: fluorogenic peptide from p53 residues 379-382 (RHK(Ac)K(Ac)AMC).

[3] = target: T2, human HDAC6 (Homo sapiens, UniProt Q9UBN7); test: as above; format: biochemical
T2 construct: purchased Reaction Biology Corporation HDAC6
T2 sequence (Q9UBN7 1-1215): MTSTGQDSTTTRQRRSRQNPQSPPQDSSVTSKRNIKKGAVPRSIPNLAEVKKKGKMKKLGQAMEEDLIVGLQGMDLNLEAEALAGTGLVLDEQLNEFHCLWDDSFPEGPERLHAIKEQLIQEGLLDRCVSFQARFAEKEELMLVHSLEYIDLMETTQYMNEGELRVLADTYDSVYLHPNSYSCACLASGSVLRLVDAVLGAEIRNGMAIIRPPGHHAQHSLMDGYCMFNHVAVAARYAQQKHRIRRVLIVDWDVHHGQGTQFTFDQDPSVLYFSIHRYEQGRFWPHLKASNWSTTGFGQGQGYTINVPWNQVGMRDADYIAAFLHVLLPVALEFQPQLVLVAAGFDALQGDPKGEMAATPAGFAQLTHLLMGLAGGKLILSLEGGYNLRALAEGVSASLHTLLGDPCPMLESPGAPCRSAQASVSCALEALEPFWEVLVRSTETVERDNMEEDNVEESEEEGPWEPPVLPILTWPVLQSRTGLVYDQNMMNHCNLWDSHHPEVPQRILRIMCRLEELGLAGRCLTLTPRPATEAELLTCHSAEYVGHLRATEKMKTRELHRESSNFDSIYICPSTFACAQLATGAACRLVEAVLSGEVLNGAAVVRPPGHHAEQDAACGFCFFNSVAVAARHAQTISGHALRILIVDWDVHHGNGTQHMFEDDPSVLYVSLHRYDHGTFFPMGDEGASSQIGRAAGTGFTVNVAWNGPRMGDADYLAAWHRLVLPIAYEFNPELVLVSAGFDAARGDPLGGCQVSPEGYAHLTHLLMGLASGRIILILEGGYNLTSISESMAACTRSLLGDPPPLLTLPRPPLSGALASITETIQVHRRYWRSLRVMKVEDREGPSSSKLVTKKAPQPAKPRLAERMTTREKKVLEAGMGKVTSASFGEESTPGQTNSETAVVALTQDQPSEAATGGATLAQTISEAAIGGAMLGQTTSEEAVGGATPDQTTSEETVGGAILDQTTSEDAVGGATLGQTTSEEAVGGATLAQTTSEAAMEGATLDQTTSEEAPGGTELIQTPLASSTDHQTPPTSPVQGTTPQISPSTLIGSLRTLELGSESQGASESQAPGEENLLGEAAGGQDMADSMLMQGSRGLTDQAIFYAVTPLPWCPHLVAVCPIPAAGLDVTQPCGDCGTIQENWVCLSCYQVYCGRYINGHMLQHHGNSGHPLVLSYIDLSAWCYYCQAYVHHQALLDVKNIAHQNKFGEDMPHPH
Procedure: as §1, §2

[4] = target: T3, human HDAC8 (Homo sapiens, UniProt Q9BY41); test: as above; format: biochemical
T3 construct: purchased Reaction Biology Corporation HDAC8
T3 sequence (Q9BY41 1-377): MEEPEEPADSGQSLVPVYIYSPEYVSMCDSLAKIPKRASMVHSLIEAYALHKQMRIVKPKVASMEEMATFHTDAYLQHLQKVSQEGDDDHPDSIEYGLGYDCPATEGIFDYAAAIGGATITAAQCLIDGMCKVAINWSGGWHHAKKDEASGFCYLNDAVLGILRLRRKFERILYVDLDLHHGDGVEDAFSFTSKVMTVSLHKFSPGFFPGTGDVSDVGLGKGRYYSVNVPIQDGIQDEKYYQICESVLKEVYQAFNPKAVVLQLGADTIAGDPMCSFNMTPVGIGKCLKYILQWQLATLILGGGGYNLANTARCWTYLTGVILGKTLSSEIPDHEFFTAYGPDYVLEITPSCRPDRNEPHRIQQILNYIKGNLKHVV
Procedure: as §1, §2

T1 sequence (Q92769 whole entry): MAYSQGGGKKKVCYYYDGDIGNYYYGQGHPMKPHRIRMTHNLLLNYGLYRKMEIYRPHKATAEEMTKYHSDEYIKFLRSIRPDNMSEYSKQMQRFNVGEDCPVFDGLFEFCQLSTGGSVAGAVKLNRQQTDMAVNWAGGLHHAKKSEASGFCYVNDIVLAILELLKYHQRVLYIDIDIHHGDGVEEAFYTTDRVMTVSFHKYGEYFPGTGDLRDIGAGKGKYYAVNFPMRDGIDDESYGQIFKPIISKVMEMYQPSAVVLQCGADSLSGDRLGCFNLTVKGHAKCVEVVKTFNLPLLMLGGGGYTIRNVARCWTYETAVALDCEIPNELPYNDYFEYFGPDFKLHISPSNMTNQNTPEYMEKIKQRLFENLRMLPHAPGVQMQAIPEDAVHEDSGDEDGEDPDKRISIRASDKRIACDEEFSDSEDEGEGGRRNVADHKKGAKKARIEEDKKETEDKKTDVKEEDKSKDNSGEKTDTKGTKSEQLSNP

| Compound | solubility [1] [µg/mL] | IC50 [2] [µM] | IC50 [3] [µM] | IC50 [4] [µM] | melting point [°C] |
| --- | --- | --- | --- | --- | --- |
| CN1C(=O)C2CN(Cc3c2c2ccccc2n3Cc2ccc(C(=O)NO)cc2)C1=O (stereo not drawn) | < 1000 | – | – | – | – |
| CN1C(=O)[C@H]2CN(Cc3c2c2cc(OCCN4CCOCC4)ccc2n3Cc2ccc(C(=O)NO)cc2)C1=O [(R)-21, N-Hydroxy-4-(((6R)-4-methyl-8-(2-morpholinoethoxy)-3,5-dioxo-3,4,5,6-tetrahydro-2,6-methano[1,3]diazocino[5,6-b]indole-11(1B)-yl)methyl)benzamide] | – | 13 | 0.00705 | 1.97 | – |
| CN1CC(=O)N2CCc3c(c4ccccc4n3Cc3ccc(C(=O)NO)cc3)C2C1=O (stereo not drawn) [Compound 31b, N-hydroxy-4-((2-methyl-1,4-dioxo-1,3,4,6,7,12c-hexahydropyrazino[1′,2′:1,2]pyrido[4,3-b]indol-8(2H)-yl)methyl)benzamide] | – | – | 0.0164 ± 0.00075 | 0.251 ± 0.0325 | – |
| CN1C(=O)C2c3c(n(Cc4ccc(C(=O)NO)cc4)c4ccccc34)CCN2C1=O (stereo not drawn) [Compound 31a, N-Hydroxy-4-((2-methyl-1,3-dioxo-2,3,5,6-tetrahydro-1H-imidazo[1′,5′:1,2]pyrido[4,3-b]indol-7(11cH)-yl)methyl)benzamide] | – | – | 0.00899 ± 0.00111 | – | 248.1 to 251.7 |

The remaining molecules from weak to strong by IC50 [3], led by results:

| solubility [1] [µg/mL] | IC50 [2] [µM] | IC50 [3] [µM] | IC50 [4] [µM] | melting point [°C] | Compound |
| --- | --- | --- | --- | --- | --- |
| – | – | 0.0307 ± 0.0058 | 0.083 ± 0.006 | – | CN1C(=O)C2c3c(c4ccccc4n3Cc3ccc(C(=O)NO)cc3)CCN2C1=O (stereo not drawn) [Compound 41, N-Hydroxy-4-((2-methyl-1,3-dioxo-2,3,5,6-tetrahydro-1H-imidazo[1′,5′:1,2]pyrido[3,4-b]indol-11(11bH)-yl)methyl)benzamide] |
| – | 1.8 | 0.00302 | 0.364 | – | CN1C(=O)[C@@H]2CN(Cc3c2c2cc(OCCN4CCOCC4)ccc2n3Cc2ccc(C(=O)NO)cc2)C1=O [(S)-21, N-Hydroxy-4-(((6S)-4-methyl-8-(2-morpholinoethoxy)-3,5-dioxo-3,4,5,6-tetrahydro-2,6-methano[1,3]diazocino[5,6-b]indole-11(1H)-yl)methyl)benzamide] |
| – | – | 0.00241 ± 0.00076 | 0.121 ± 0.01 | – | CN1C(=O)C2CN(Cc3c2c2cc(OCCN4CCOCC4)ccc2n3Cc2ccc(C(=O)NO)cc2)C1=O (stereo not drawn) [Compound 21, 4-(2-((11-(4-(Hydroxycarbamoyl)benzyl)-4-methyl-3,5-dioxo-1,3,4,5,6,11-hexahydro-2,6-methano[1,3]diazocino[5,6-b]indol-8-yl)oxy)ethyl)morpholin-4-ium chloride] |

Source: patent US11198694B2, “HDAC6 inhibitors, with improved solubility and their uses” (UNIVERSITÄT REGENSBURG, priority 2017, dated 2021)
